{"source": "patent US9670261B2", "about": "(Sanofi, priority 2012, dated 2017)", "key": {"[1]": {"system": "female leptin-receptor deficient diabetic db/db mice", "assay": "Blood glucose and HbA1c in leptin-receptor deficient diabetic db/db mice (method 3)", "format": "in vivo", "settings": "single 100 μg/kg s.c., fed db/db mice", "excerpt": "Female BKS.Cg-m+/+Leprdb/J (db/db) and BKS.Cg-m+/+Leprdb/+(lean control) mice were obtained from Charles River Laboratories, Germany, at an age of 9-10 weeks. The animals were housed in groups in a specific pathogen-free barrier facility on a 12-h light/dark cycle with free access to water and rodent-standard chow. After 1 week of acclimatization, blood samples were drawn from the tail without anaesthesia and blood glucose (method: d-glucose hexokinase, hemolysate, AU640 Beckman Coulter) and HbA1c level (method: hemolysate, Cobas6000 c501, Roche Diagnostics, Germany) were determined. […] The volume of administration was 5 mL/kg. The animals had access to water and chow during the experiment, food consumption was determined at all time points of blood sampling. […] Blood sampling was performed by tail incision without anaesthesia. […] At the end of the study, blood samples (tail, no anaesthesia) were analyzed for glucose and HbA1c. […] Statistical analyses were performed with Everstat 6.0 by repeated measures two-way ANOVA and Dunnett's post-hoc analyses. Differences versus vehicle-treated db/db control mice were considered statistically significant at the p<0.05 level. […] At predefined time points, more blood samples were taken to measure blood glucose and generate the blood glucose profile over 24 h. […] Blood glucose and HbA1c were determined before start of treatment and at the end of the study after 4 weeks of treatment. […] Before treatment started, no significant differences in blood glucose levels could be detected between db/db groups, only the lean control animals had significant lower glucose levels. During the 4 weeks of treatment, glucose levels increased in the vehicle-treated db/db control group, indicating a worsening of the diabetic situation."}, "[2]": {"assay": "Pharmacokinetic testing in mice, s.c.", "settings": "mouse, plasma, sc, 1 mg/kg", "description": "Mice were dosed 1 mg/kg subcutaneously (s.c.). The mice were sacrified and blood samples were collected after 0.25, 0.5, 1, 2, 4, 8, 16 and 24 hours post application. Plasma samples were analyzed after protein precipitation via liquid chromatography mass spectrometry (LC/MS). PK parameters and half-life were calculated using WinonLin Version 5.2.1 (non-compartment model)."}, "[3]": {"biological_target": "T1, human GIP receptor (Homo sapiens, UniProt P48546)", "T1 construct": "expressed in transfected cells", "T1 sequence (P48546 22-466)": "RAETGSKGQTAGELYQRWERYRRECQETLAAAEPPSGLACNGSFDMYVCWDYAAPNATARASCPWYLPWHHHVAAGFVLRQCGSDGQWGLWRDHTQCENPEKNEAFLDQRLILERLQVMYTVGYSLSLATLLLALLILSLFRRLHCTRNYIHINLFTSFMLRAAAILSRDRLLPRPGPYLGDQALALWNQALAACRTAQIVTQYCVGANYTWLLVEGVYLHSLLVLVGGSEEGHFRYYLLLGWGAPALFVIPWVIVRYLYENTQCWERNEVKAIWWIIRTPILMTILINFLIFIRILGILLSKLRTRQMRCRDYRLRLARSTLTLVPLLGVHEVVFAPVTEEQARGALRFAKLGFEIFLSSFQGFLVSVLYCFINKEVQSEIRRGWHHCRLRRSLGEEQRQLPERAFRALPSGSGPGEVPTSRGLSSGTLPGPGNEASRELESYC", "assay": "cAMP response (HTRF) of HEK-293 cells stably expressing human GIP receptor", "format": "cell-based", "settings": "Table 7; cAMP formation; read-out: EC50 hGIP R", "protocol": "cAMP content of cells was determined using a kit from Cisbio Corp. (cat. no. 62AM4PEC) based on HTRF (Homogenous Time Resolved Fluorescence). For preparation, cells were split into T175 culture flasks and grown overnight to near confluency in medium (DMEM/10% FBS). Medium was then removed and cells washed with PBS lacking calcium and magnesium, followed by proteinase treatment with accutase (Sigma-Aldrich cat. no. A6964). Detached cells were washed and resuspended in assay buffer (1×HBSS; 20 mM HEPES, 0.1% BSA, 2 mM IBMX) and cellular density determined. They were then diluted to 400000 cells/ml and 25 μl-aliquots dispensed into the wells of 96-well plates. For measurement, 25 μl of test compound in assay buffer was added to the wells, followed by incubation for 30 minutes at room temperature."}, "[4]": {"biological_target": "T2, human GLP-1 receptor (Homo sapiens, UniProt P43220)", "T2 construct": "expressed in transfected cells", "T2 sequence (P43220 24-463)": "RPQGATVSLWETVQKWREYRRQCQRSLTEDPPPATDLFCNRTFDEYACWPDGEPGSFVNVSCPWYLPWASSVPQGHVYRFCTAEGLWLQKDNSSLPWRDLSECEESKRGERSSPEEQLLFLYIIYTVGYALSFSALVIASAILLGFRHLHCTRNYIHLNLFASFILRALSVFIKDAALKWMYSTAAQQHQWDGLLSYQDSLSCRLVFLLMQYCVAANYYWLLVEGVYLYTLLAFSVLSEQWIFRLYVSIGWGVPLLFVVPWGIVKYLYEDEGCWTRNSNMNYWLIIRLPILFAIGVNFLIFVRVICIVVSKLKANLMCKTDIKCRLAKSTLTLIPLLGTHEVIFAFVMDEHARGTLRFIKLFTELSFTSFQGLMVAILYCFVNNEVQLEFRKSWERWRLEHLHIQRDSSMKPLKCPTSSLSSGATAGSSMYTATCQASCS", "assay": "cAMP response (HTRF) of HEK-293 cells stably expressing human GLP-1 receptor", "format": "cell-based", "settings": "Table 7; cAMP formation; read-out: EC50 hGLP-1 R", "procedure,_shortened": "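cAMP accumulation was read by homogeneous time-resolved fluorescence after 30 min compound exposure at room temperature. Stable receptor-expressing HEK-293 cells, 400000 cells/ml, were used in HEPES-buffered HBSS containing 0.1% BSA and the phosphodiesterase inhibitor IBMX (2 mM).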"}}, "note": "*1 amine or outer side, *2 acyl side, *3 side chain or, on linkers, in order; H or OH if unused. Where a SMILES comes first, the peptide text is derived from it. Side-chain parts run from the residue outwards. [ ]: non-standard residue; d: D form. The star is where a group is joined. γGlu = O=C(O)[C@H](CCC(=O)[*:2])N[*:1]; Palmitoyl = CCCCCCCCCCCCCCCC(=O)*; Aib = CC(C)(N)C(=O)O"}
{"smiles": "CCCCCCCCCCCCCCCC(=O)N[C@@H](CCC(=O)NCCCC[C@H](NC(=O)[C@H](CCC(N)=O)NC(=O)[C@@H](NC(=O)[C@H](CO)NC(=O)[C@H](CC(C)C)NC(=O)[C@H](CC(=O)O)NC(=O)[C@H](CO)NC(=O)[C@@H](NC(=O)[C@H](Cc1ccccc1)NC(=O)[C@@H](NC(=O)CNC(=O)[C@H](CCC(=O)O)NC(=O)C(C)(C)NC(=O)[C@@H](N)Cc1ccc(O)cc1)[C@@H](C)O)[C@@H](C)O)[C@@H](C)CC)C(=O)N[C@@H](CCC(=O)O)C(=O)N[C@@H](CO)C(=O)N[C@@H](CCCNC(=N)N)C(=O)N[C@@H](C)C(=O)N[C@@H](C)C(=O)N[C@@H](CCC(N)=O)C(=O)N[C@@H](CC(=O)O)C(=O)N[C@@H](Cc1ccccc1)C(=O)N[C@H](C(=O)N[C@@H](CCC(=O)O)C(=O)N[C@@H](Cc1c[nH]c2ccccc12)C(=O)N[C@@H](CC(C)C)C(=O)N[C@@H](CCCCN)C(=O)N[C@@H](C)C(=O)NCC(=O)NCC(=O)N1CCC[C@H]1C(=O)N[C@@H](CO)C(=O)N[C@@H](CO)C(=O)NCC(=O)N[C@@H](C)C(=O)N1CCC[C@H]1C(=O)N1CCC[C@H]1C(=O)N1CCC[C@H]1C(=O)N[C@@H](CO)C(N)=O)[C@@H](C)CC)C(=O)O", "note": "[SEQ ID NO: 10, Y-Aib-E-G-T-F-T-S-D-L-S-I-Q-K(γE-x53)-ESRAAQDFIEWLKAGGPSSGAPPPS-NH2] (H-Y[Aib]EGTFTSDLSIQK([γGlu-Palmitoyl])ESRAAQDFIEWLKAGGPSSGAPPPS-NH2)", "values": [{"measurement": "blood glucose compared to db/db control mice, 24 h profile", "setting": "[1]", "result": "significant decrease in blood glucose"}, {"measurement": "Cmax", "setting": "[2]", "result": 5820, "unit": "ng/mL"}, {"measurement": "half-life", "setting": "[2]", "result": 162, "unit": "min"}]}
{"smiles": "CCCCCCCCCCCCCCCC(=O)N[C@@H](CCC(=O)NCCCC[C@H](NC(=O)[C@H](CCC(N)=O)NC(=O)[C@@H](NC(=O)[C@H](CO)NC(=O)[C@H](CC(C)C)NC(=O)[C@H](CC(=O)O)NC(=O)[C@H](CO)NC(=O)[C@@H](NC(=O)[C@H](Cc1ccccc1)NC(=O)[C@@H](NC(=O)CNC(=O)[C@H](CCC(=O)O)NC(=O)C(C)(C)NC(=O)[C@@H](N)Cc1ccc(O)cc1)[C@@H](C)O)[C@@H](C)O)[C@@H](C)CC)C(=O)N[C@@H](CCC(=O)O)C(=O)N[C@@H](CCCCN)C(=O)N[C@@H](CCCNC(=N)N)C(=O)N[C@@H](C)C(=O)N[C@@H](C)C(=O)NC(C)(C)C(=O)N[C@@H](CC(=O)O)C(=O)N[C@@H](Cc1ccccc1)C(=O)N[C@H](C(=O)N[C@@H](CCC(=O)O)C(=O)N[C@@H](Cc1c[nH]c2ccccc12)C(=O)N[C@@H](CC(C)C)C(=O)N[C@@H](CCCCN)C(=O)N[C@@H](CC(N)=O)C(=O)N[C@H](C(=O)NCC(=O)N1CCC[C@H]1C(=O)N[C@@H](CO)C(=O)N[C@@H](CO)C(=O)NCC(=O)N[C@@H](C)C(=O)N1CCC[C@H]1C(=O)N1CCC[C@H]1C(=O)N1CCC[C@H]1C(=O)N[C@@H](CO)C(N)=O)[C@@H](C)O)[C@@H](C)CC)C(=O)O", "note": "[SEQ ID NO: 27, Y-Aib-E-G-T-F-T-S-D-L-S-I-Q-K(γE-x53)-E-K-R-A-A-Aib-D-F-I-E-W-L-K-N-T-G-P-S-S-G-A-P-P-P-S-NH2] (H-Y[Aib]EGTFTSDLSIQK([γGlu-Palmitoyl])EKRAA[Aib]DFIEWLKNTGPSSGAPPPS-NH2)", "values": [{"measurement": "EC50", "setting": "[3]", "result": 6.7, "unit": "pM"}, {"measurement": "EC50", "setting": "[4]", "result": 4, "unit": "pM"}]}
{"smiles": "CCCCCCCCCCCCCCCC(=O)N[C@@H](CCC(=O)NCCCC[C@H](NC(=O)[C@H](CCC(N)=O)NC(=O)[C@@H](NC(=O)[C@H](CO)NC(=O)[C@H](CC(C)C)NC(=O)[C@H](CC(=O)O)NC(=O)[C@H](CO)NC(=O)[C@@H](NC(=O)[C@H](Cc1ccccc1)NC(=O)[C@@H](NC(=O)CNC(=O)[C@H](CCC(N)=O)NC(=O)C(C)(C)NC(=O)[C@@H](N)Cc1ccc(O)cc1)[C@@H](C)O)[C@@H](C)O)[C@@H](C)CC)C(=O)N[C@@H](CCC(=O)O)C(=O)N[C@@H](CO)C(=O)N[C@@H](CCCNC(=N)N)C(=O)N[C@@H](C)C(=O)N[C@@H](C)C(=O)N[C@@H](CCC(N)=O)C(=O)N[C@@H](CC(=O)O)C(=O)N[C@@H](Cc1ccccc1)C(=O)N[C@H](C(=O)N[C@@H](CCC(=O)O)C(=O)N[C@@H](Cc1c[nH]c2ccccc12)C(=O)N[C@@H](CC(C)C)C(=O)N[C@@H](CCCCN)C(=O)N[C@@H](C)C(=O)NCC(=O)NCC(=O)N1CCC[C@H]1C(=O)N[C@@H](CO)C(=O)N[C@@H](CO)C(=O)NCC(=O)N[C@@H](C)C(=O)N1CCC[C@H]1C(=O)N1CCC[C@H]1C(=O)N1CCC[C@H]1C(=O)N[C@@H](CO)C(N)=O)[C@@H](C)CC)C(=O)O", "note": "[SEQ ID NO: 32, Y-Aib-Q-G-T-F-T-S-D-L-S-I-Q-K(γE-x53)-ESRAAQDFIEWLKAGGPSSGAPPPS-NH2] (H-Y[Aib]QGTFTSDLSIQK([γGlu-Palmitoyl])ESRAAQDFIEWLKAGGPSSGAPPPS-NH2)", "values": [{"measurement": "EC50", "setting": "[3]", "result": 7.1, "unit": "pM"}, {"measurement": "EC50", "setting": "[4]", "result": 8.4, "unit": "pM"}, {"measurement": "Cmax", "setting": "[2]", "result": 5520, "unit": "ng/mL"}, {"measurement": "half-life", "setting": "[2]", "result": 162, "unit": "min"}]}
{"smiles": "CCCCCCCCCCCCCCCC(=O)N[C@@H](CCC(=O)NCCCC[C@H](NC(=O)[C@H](CCC(N)=O)NC(=O)[C@@H](NC(=O)[C@H](CO)NC(=O)[C@H](CC(C)C)NC(=O)[C@H](CC(=O)O)NC(=O)[C@H](CO)NC(=O)[C@@H](NC(=O)[C@H](Cc1ccccc1)NC(=O)[C@@H](NC(=O)CNC(=O)[C@H](CCC(=O)O)NC(=O)C(C)(C)NC(=O)[C@@H](N)Cc1ccc(O)cc1)[C@@H](C)O)[C@@H](C)O)[C@@H](C)CC)C(=O)N[C@@H](CCC(=O)O)C(=O)N[C@@H](CCCCN)C(=O)N[C@@H](CCCNC(=N)N)C(=O)N[C@@H](C)C(=O)N[C@@H](C)C(=O)NC(C)(C)C(=O)N[C@@H](CCC(=O)O)C(=O)N[C@@H](Cc1ccccc1)C(=O)N[C@H](C(=O)N[C@@H](CCC(=O)O)C(=O)N[C@@H](Cc1c[nH]c2ccccc12)C(=O)N[C@@H](CC(C)C)C(=O)N[C@@H](CCCCN)C(=O)N[C@@H](C)C(=O)NCC(=O)NCC(=O)N1CCC[C@H]1C(=O)N[C@@H](CO)C(=O)N[C@@H](CO)C(=O)NCC(=O)N[C@@H](C)C(=O)N1CCC[C@H]1C(=O)N1CCC[C@H]1C(=O)N1CCC[C@H]1C(=O)N[C@@H](CO)C(N)=O)[C@@H](C)CC)C(=O)O", "note": "[SEQ ID NO: 36, Y-Aib-E-G-T-F-T-S-D-L-S-I-Q-K(γE-x53)-E-K-R-A-A-Aib-E-F-I-E-W-L-K-A-G-G-P-S-S-G-A-P-P-P-S-NH2] (H-Y[Aib]EGTFTSDLSIQK([γGlu-Palmitoyl])EKRAA[Aib]EFIEWLKAGGPSSGAPPPS-NH2)", "values": [{"measurement": "EC50", "setting": "[3]", "result": 6.4, "unit": "pM"}]}
